According to ChEMBL document CHEMBL2396557, “Functional consequences of retro-inverso isomerization of a miniature protein inhibitor of the p53-MDM2 interaction” (Bioorg Med Chem, 2013):
Active and inactive are the calls of the source. The calls are words filed in the database; no cut-off is given here.

How the values were obtained:
[1] = target: T1, E3 ubiquitin-protein ligase Mdm2 (Homo sapiens, UniProt Q00987); experiment: Binding affinity to MDM2 (25 to 109 amino acids) (unknown origin) at 100 uM after 30 mins by surface plasmon resosnance analysis
Target sequence in this assay (Q00987 whole entry, looked up, the tested form may be a part): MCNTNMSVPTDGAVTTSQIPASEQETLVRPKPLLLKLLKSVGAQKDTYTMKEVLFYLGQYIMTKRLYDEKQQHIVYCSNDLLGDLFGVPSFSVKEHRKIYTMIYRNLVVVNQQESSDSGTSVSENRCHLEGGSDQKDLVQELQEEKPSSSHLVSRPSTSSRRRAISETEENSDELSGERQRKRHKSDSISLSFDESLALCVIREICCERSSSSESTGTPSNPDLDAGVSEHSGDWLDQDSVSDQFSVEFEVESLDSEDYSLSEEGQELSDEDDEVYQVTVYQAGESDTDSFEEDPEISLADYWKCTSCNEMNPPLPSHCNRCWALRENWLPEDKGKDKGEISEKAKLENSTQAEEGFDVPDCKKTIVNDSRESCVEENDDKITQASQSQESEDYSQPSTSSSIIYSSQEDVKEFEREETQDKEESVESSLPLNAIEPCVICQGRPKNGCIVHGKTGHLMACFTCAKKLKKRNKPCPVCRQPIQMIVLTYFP

[2] = target: T1, E3 ubiquitin-protein ligase Mdm2; experiment: Binding affinity to MDM2 (25 to 109 amino acids) (unknown origin) after 30 mins by surface plasmon resosnance analysis
Target sequence in this assay (Q00987 whole entry, the tested form may be a part): as the sequence (Q00987 whole entry, looked up, the tested form may be a part) above

Row | Activity [1] | Kd [2] | SMILES
1 | inactive | – | CC(C)C[C@@H]1NC(=O)[C@@H]2CSSC[C@@H](C(=O)O)NC(=O)[C@H](CC(N)=O)NC(=O)[C@H](CSSC[C@H](NC(=O)[C@H](CC(C)C)NC(=O)[C@H](CCC(N)=O)NC(=O)[C@@H](N)Cc3cnc[nH]3)C(=O)N[C@@H](CCCNC(=N)N)C(=O)N[C@@H](Cc3c[nH]c4ccccc34)C(=O)N[C@@H](Cc3ccc(O)cc3)C(=O)N2)NC(=O)[C@H](CCCCN)NC(=O)[C@H](C)NC(=O)[C@@H]2CCCN2C(=O)[C@H](CCC(=O)O)NC(=O)[C@H]([C@@H](C)O)NC(=O)[C@H](Cc2ccccc2)NC1=O
2 | – | 18.1 µM | CC(C)C[C@@H](NC(=O)[C@@H](CCC(N)=O)NC(=O)[C@H](N)Cc1cnc[nH]1)C(=O)N[C@@H]1CSSC[C@H]2NC(=O)[C@@H](CCCCN)NC(=O)[C@@H](C)NC(=O)[C@H]3CCCN3C(=O)[C@@H](CCC(=O)O)NC(=O)[C@@H]([C@H](C)O)NC(=O)[C@@H](Cc3ccccc3)NC(=O)[C@@H](CC(C)C)NC(=O)[C@@H](CSSC[C@H](C(=O)O)NC(=O)[C@@H](CC(N)=O)NC2=O)NC(=O)[C@@H](Cc2ccc(O)cc2)NC(=O)[C@@H](Cc2c[nH]c3ccccc23)NC(=O)[C@@H](CCCNC(=N)N)NC1=O
